Results on one molecule are retold here after article PMC10889512, “Pyrimidine Schiff Bases: Synthesis, Structural Characterization and Recent Studies on Biological Activities” (International Journal of Molecular Sciences, 2024).

Each structure is given as a SMILES string.

Holding throughout (type): cell-based, human
In series [1] the test system is AGS cells. The series can be described thus: Flow cytometry annexin V/PI staining, cell death pathway, AGS. The settings on record: at IC50, 6, 18 and 24 h. On the procedure: To confirm the cell death pathway, another approach to flow cytometry was used. […] Annexin V is a specific PS-binding protein, and thus it is used to detect apoptotic cells. Very few events could be observed in the first and the second quadrant, which represent apoptotic cells. Most events occurred in the third and the fourth quadrant, where unstained and necrotic cells were located. The 24 h measurements after both flow cytometry approaches were consistent with each other. […] Two approaches for flow cytometry were used—FDA/PI staining to determine cell viability and annexin V/PI staining for cell death pathway determination. For cell death pathway determination, cells were plated in 6-well plates at a density of 3 × 10^5 cells/well. […] After 6, 18, and 24 h incubation, adhered and floating cells were harvested, centrifuged at 1600 rpm, and washed with PBS. Next, the cells were washed with 1× annexin-binding buffer, and after centrifugation, cells from each test set were suspended in 100 µL of 1× annexin-binding buffer. To each tube, 5 µL of Alexa Fluor 488-annexin V stain was added, and the cells were incubated in the dark. After 15 min incubation, the cells were centrifuged at 1600 rpm to remove the dye, then suspended in 1 mL of 1× binding buffer and kept on ice. Prior to analysis, cells were stained for 2 min with 1 µM PI. […]
For orientation: Flow cytometry measures light scatter and fluorescence of single cells or particles in a stream.

In another series the test system is A172. The series can be described thus: Neutral red uptake assay on A172. The settings on record: A172, 72 h treatment. On the procedure:
Based on the results obtained for the RPTEC cell line, the following concentrations of 4b–d were chosen to be applied to neoplastic cell lines: 0.1, 1, 10, 25, 50, and 100 µM. A172, AGS, CaCo-2, HeLa, and HepG2 cancer cell lines were used to perform a neutral red uptake assay. The obtained results were compared with a negative control (cell lines incubated without tested compounds), and half-maximal inhibitory concentration (IC50) values were calculated. Cell lines were plated in 96-well plates at a density of 1 × 10^4 cells/well. After 24 h incubation, which allowed the cells to attach and start to proliferate, the culture media were replaced with 4a–d dissolved in the appropriate medium at concentrations of 1, 10, 50, 100, 150 and 200 µM. […] Negative (1% DMSO in medium) and positive (1 µM staurosporine) controls were also included. Plates were incubated at 37 °C for 24, 48, and 72 h before the neutral red uptake assay. The neutral red uptake assay was performed as described by Repetto et al.. Briefly, the medium from all wells was discarded, the attached cells were washed with 100 µL PBS, and then 100 µL of neutral red working solution in medium (40 µg/mL) was added to each well. The neutral red solution was incubated overnight in the same conditions as the cells and centrifuged before being added to the cells. The plates were incubated for at least 2 h at 37 °C, 5% CO2, in a humidified atmosphere. Next, the neutral red medium was removed, and the cells were washed with 100 µL PBS. A 100 µL quantity of destain solution consisting of 50% ethanol, 1% glacial acetic acid, and deionized water was added to each well. Plates were incubated for 30 min with constant shaking on a horizontal shaker at 37 °C. Absorption was measured at 540 nm excitation. The cells’ viability was calculated by comparing results from experimental sets with negative controls according to the formula: % viability=ODtest substance−ODblind/ODnegative control−ODblind×100

Series [2] has as its system AGS cells. Briefly: Flow cytometry FDA/PI staining, cell viability, AGS. On the procedure:
A detailed analysis of potential cytotoxic mechanisms has been performed only for the selected compound (4b) where the IC50 values under 100 µM were detected in the screening NR assay. Flow cytometry was performed on the A172 and AGS cell lines. Cells were incubated with compound 4b at IC50 for 24, 48, and 72 h before analysis. Fluorescein diacetate (FDA) and propidium iodide (PI) were used as indicators for viable and nonviable (necrotic) cells. Most of the events were captured in the first and the fourth quadrant, which represent viable and necrotic cells, respectively. […] Similar results were obtained for the AGS cell line (Figure 8B), where the viability was 60.95%/55.10%/44.99% after the same incubation periods, respectively. Some events occurred in the second quadrant, but it was difficult to unequivocally categorize them into viable or nonviable (apoptotic/necrotic) cell populations, and thus more sensitive dyes, able to distinguish between the types of cell death, were needed.
Two approaches for flow cytometry were used—FDA/PI staining to determine cell viability and annexin V/PI staining for cell death pathway determination.
For cell viability determination, cells were plated in 6-well plates at a density of 1 × 10^5 cells/well and incubated for 24 h at 37 °C, 5% CO2 and in a humidified atmosphere. Next, cells were treated with 4b at a concentration calculated as IC50 in neutral red uptake assay. After 24, 48, and 72 h incubation, the cells (either adhered or floating) were collected, centrifuged at 1600 rpm, and washed with PBS. FDA and PI stock solution at a 1 mM concentration were prepared in DMSO and H2O, respectively. After centrifugation and supernatant discarding, cells were stained with FDA at a final concentration of 1 µM prepared in PBS and incubated in the dark. After 15 min, they were centrifuged at 1600 rpm, resuspended in ice-cold PBS, and placed on ice. Samples were stained with 1 µM PI for 2 min before the cytometry evaluation. […]

Consider `Cc1nc(-c2ccccc2)nc(Nc2ccc(F)cc2)c1C=Nc1cccc(Cl)c1` [compound 4b, 5-{[(3-chlorophenyl)imino]methyl}-N-(4-fluorophenyl)-6-methyl-2-phenylpyrimidin-4-amine], for which the cell death pathway result in the series with AGS cells [1] is “irreversible cell injury and necrosis”. The IC50 (usually the concentration that inhibits the measured activity by half) in the series with A172 is 63.4 µM; in the series with A172 (Homo sapiens, A 172, 72 h), 63.4 µM. The “Q1 events (viable cells; viability), FDA/PI” value in the series on AGS cells [2] (at IC50, 24 h) is 60.95%; in the series with AGS cells [2] (at IC50, 48 h), 55.10%; in the series on AGS cells [2] (at IC50, 72 h) it was 44.99%.
